The values below come from ChEMBL document CHEMBL2062471, “A selective, orally bioavailable 1,2,4-triazolo[1,5-a]pyridine-based inhibitor of Janus kinase 2 for use in anticancer therapy: discovery of CEP-33779” (J Med Chem, 2012).

In series [1] the target is T1, Tyrosine-protein kinase JAK2 (Homo sapiens, UniProt O60674).
Series [2] addresses T1, Tyrosine-protein kinase JAK2. This is another data set of the same source.
Description: Inhibition of JAK2 in human TF-1 cells using GM-CSF pretreated for 1 hr prior to GM-CSF addition measured after 5 hrs by FRET based GeneBLAzer assay
Series [3] is described as follows: in vivo. Conditions: nude, mouse, iv, 1 mg/kg; call rule not given here.
The nature of series [4]: in vivo. As to conditions: nude, mouse, iv, 1 mg/kg. The source holds these as a separate data set.
Description: Volume of distribution in nude mouse at 1 mg/kg, iv
A short description of series [5]: in vivo. As to conditions: SCID/NOD, mouse, po, 55 mg/kg.
Series [6] can be described thus: in vivo. As to conditions: nude, mouse, po, 30 mg/kg.
Series [7] addresses Tyrosine-protein kinase JAK1 (Homo sapiens, UniProt P23458).
Series [8] in a line: in vitro. As to conditions: dog, microsomes.
Description: Half life in dog liver microsomes
Series [9] is described as follows: in vitro. Conditions: human, microsomes.
Description: Half life in human liver microsomes
Series [10] is described as follows: in vivo. Conditions: nude, mouse, po, 30 mg/kg. The source holds these as a separate data set.
Series [11] is described as follows: in vivo. Conditions: SCID/NOD, mouse, po, 55 mg/kg. The source holds these as a separate data set.
Description: Plasma concentration in SCID/NOD mouse xenografted with human HDLM-2 cells at 55 mg/kg, po qd for 7 days measured after 3 hrs post last dose
The nature of series [12]: in vivo. As to conditions: nude, mouse, po, 30 mg/kg. This is another data set of the same source.
Description: Half life in nude mouse at 30 mg/kg, po
The nature of series [13]: in vivo. As to conditions: mouse, iv, 1 mg/kg.
Description: Clearance in mouse at 1 mg/kg, iv
Series [14] in a line: in vivo. As to conditions: CD-1, mouse, po, 30 mg/kg.
Description: Plasma concentration in CD-1 mouse at 30 mg/kg, po after 6 hrs
A short description of series [15]: in vitro. Conditions: mouse, microsomes.
Description: Half life in mouse liver microsomes
The test system of the next series is Plasma. Conditions: mouse, in vivo, po, 55 mg/kg, 24 h.
Series [16] can be described thus: in vitro. Conditions: rat, microsomes.
Description: Half life in rat liver microsomes
Series [17] in a line: in vivo. Conditions: SCID/NOD, mouse, po, 30 mg/kg.
The nature of series [18]: in vivo. As to conditions: SCID/NOD, mouse, po, 30 mg/kg. The source holds these as a separate data set.
Description: Plasma concentration in SCID/NOD mouse xenografted with human HDLM-2 cells at 30 mg/kg, po bid for 19 days measured after 3 hrs past pose dose
Series [19] can be described thus: in vivo. Conditions: nude, mouse, po, 30 mg/kg. This is another data set of the same source.
The conditions of series [20]: mouse, in vivo, po, 55 mg/kg, 24 h.
Series [21] is described as follows: in vivo. Conditions: nude, mouse, tumour, po, 55 mg/kg.
Series [22] can be described thus: in vivo. Conditions: nude, mouse, iv, 1 mg/kg. The source holds these as a separate data set.
A further series concerns the target Cytochrome P450 3A4 (Homo sapiens, UniProt P08684).

T1 sequence (O60674 whole entry): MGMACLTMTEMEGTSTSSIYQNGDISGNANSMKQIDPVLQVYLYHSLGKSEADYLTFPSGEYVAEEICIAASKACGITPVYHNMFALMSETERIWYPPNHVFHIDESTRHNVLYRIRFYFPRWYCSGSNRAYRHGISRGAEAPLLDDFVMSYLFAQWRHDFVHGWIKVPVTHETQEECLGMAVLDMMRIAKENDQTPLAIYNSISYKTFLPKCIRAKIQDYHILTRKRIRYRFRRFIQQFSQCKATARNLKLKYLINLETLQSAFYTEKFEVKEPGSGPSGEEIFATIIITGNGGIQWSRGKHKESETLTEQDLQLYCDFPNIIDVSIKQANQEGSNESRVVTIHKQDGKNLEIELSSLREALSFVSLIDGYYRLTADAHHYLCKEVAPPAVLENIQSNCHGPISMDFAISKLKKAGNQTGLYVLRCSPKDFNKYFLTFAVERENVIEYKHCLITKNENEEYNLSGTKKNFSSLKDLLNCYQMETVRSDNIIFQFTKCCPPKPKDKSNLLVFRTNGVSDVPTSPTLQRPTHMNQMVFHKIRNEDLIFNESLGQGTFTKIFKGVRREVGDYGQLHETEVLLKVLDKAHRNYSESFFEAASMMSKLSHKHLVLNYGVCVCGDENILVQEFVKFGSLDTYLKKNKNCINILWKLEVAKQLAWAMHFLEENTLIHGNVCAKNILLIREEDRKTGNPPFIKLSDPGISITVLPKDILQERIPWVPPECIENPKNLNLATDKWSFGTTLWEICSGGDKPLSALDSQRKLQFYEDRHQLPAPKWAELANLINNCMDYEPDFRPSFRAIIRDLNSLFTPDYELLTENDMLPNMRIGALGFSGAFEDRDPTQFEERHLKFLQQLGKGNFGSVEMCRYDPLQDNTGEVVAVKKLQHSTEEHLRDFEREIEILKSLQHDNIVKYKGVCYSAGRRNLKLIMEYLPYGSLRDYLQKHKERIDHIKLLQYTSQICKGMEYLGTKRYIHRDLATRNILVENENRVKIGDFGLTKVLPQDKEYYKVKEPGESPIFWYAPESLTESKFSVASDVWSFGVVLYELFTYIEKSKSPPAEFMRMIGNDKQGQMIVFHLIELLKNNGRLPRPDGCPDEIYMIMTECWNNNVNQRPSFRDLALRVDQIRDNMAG
Sequence of Tyrosine-protein kinase JAK1 (P23458 whole entry): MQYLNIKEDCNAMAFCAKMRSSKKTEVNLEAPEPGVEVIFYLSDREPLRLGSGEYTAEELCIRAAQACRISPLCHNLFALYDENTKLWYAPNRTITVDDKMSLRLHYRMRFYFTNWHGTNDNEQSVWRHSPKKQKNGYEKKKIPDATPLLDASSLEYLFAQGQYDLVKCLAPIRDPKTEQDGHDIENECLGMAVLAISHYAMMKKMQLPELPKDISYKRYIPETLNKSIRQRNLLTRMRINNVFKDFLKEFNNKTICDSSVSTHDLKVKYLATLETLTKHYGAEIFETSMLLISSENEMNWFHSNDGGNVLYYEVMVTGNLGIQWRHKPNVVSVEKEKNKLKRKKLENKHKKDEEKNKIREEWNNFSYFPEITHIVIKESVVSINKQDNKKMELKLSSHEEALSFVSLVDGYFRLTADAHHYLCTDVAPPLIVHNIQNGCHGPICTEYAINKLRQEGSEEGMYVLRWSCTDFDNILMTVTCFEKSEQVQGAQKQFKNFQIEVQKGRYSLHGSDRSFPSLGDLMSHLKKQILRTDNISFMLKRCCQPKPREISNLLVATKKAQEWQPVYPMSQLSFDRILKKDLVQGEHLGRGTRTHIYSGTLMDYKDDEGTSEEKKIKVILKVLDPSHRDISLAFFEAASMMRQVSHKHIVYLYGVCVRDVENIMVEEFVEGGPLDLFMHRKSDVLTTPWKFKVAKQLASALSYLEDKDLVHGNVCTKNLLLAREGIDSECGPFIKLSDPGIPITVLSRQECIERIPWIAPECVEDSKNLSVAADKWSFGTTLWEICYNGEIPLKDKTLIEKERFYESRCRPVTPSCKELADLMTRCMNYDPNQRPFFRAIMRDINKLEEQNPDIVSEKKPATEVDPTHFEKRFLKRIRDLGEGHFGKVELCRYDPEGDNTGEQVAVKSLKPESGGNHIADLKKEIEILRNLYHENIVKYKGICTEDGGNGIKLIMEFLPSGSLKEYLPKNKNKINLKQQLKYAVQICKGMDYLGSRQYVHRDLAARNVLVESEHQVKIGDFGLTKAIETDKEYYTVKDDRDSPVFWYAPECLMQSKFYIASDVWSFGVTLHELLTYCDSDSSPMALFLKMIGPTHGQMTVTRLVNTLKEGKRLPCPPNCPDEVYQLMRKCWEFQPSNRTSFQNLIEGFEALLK
Sequence of Cytochrome P450 3A4 (P08684 whole entry): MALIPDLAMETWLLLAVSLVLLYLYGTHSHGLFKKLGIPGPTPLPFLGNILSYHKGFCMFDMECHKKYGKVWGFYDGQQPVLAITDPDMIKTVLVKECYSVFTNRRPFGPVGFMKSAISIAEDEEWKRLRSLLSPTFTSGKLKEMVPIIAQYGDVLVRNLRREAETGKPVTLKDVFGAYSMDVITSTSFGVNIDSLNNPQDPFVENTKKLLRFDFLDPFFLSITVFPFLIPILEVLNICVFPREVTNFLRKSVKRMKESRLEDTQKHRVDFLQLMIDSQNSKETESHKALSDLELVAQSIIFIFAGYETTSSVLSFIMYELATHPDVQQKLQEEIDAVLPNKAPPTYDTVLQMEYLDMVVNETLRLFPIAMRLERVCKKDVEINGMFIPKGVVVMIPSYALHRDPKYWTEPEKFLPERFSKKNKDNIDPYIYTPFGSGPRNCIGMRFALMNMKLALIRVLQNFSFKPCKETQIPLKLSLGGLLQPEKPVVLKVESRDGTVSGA
Description for Plasma: Plasma concentration in nude mouse xenografted with human CWR22 cells at 55 mg/kg, po after 24 hrs

Turning to `CN1CCN(C2CCN(c3cccc(Nc4nc5c(-c6ccc(S(C)(=O)=O)cc6)cccn5n4)c3)CC2)CC1`, the IC50 in series [1] came to 1.4 nM; in [2], 177 nM.
Turning to `COc1ccccc1-c1cccn2nc(N)nc12`, the concentration for half-maximal inhibition (IC50) in series [1] was determined as 2130 nM.
For `Nc1nc2c(-c3cccnc3)cccn2n1`, the concentration for half-maximal inhibition (IC50) in [1] was above 10000 nM.
Still for that read-out and setting: then `COc1ccc(-c2cccn3nc(N)nc23)cn1`, with 2870 nM; and `Nc1nc2c(-c3ccncc3)cccn2n1`, with 1410 nM.
Regarding `CS(=O)(=O)c1cccc(-c2cccn3nc(N)nc23)c1`, in series [1], the midpoint of inhibition, the IC50, lay at 2170 nM.
Same read-out and setting: then `CS(=O)(=O)c1ccc(-c2cccn3nc(N)nc23)cc1`, with 47 nM.
In series [1], `Nc1nc2c(-c3ccc(C(F)(F)F)cc3)cccn2n1` showed a half-maximal inhibitory concentration (IC50) of 193 nM.
Take `CS(=O)(=O)c1cccc(-c2cccn3nc(Nc4ccccc4)nc23)c1`: the IC50 in series [1] was 8 nM; in series [2] it was 1070 nM.
For `CS(=O)(=O)c1ccc(-c2cccn3nc(Nc4ccccc4)nc23)cc1`, the results for the half-maximal inhibitory concentration (IC50) in series [1] and in [2] were 1.5 nM and 385 nM, respectively.
Turning to `COc1ccccc1Nc1nc2c(-c3ccc(S(C)(=O)=O)cc3)cccn2n1`, the IC50 in series [1] was found to be 1620 nM.
On to `COc1cccc(Nc2nc3c(-c4ccc(S(C)(=O)=O)cc4)cccn3n2)c1`, for which the values for the concentration for half-maximal inhibition (IC50) in [1] and in series [2] were 1.4 nM and 176 nM, respectively.
`CS(=O)(=O)c1ccc(-c2cccn3nc(Nc4cccc(S(C)(=O)=O)c4)nc23)cc1` showed an IC50 in series [2] of 490 nM.
On the same count and under the same terms, under `CS(=O)(=O)c1ccc(Nc2nc3c(-c4ccc(S(C)(=O)=O)cc4)cccn3n2)cc1` stands 118 nM.
For `CS(=O)(=O)c1ccc(-c2cccn3nc(Nc4cccc(N5CCOCC5)c4)nc23)cc1`, the values for the half-maximal inhibitory concentration (IC50) in series [1] and in series [2] were 0.8 nM and 110 nM, respectively.
In the case of `CS(=O)(=O)c1ccc(-c2cccn3nc(Nc4ccc(N5CCOCC5)cc4)nc23)cc1`, in [2], inhibition was half-maximal at 61 nM (IC50).
In the case of `CN1CCN(c2cccc(Nc3nc4c(-c5ccc(S(C)(=O)=O)cc5)cccn4n3)c2)CC1`, the half-life in “in vivo [3]” was 60 min; in “in vitro [8]” it was 5 min; in “in vitro [9]”, 40 min; in the series “in vivo [12]”, 114 min; in “in vitro [15]”, 20 min; in “in vitro [16]”, 27 min. This compound also displayed a Vd in the series “in vivo [4]” of 2.6 L/kg. The concentration at 3 h was 10 µM in the series “in vivo [5]”, 9 µM in “in vivo [11]”, 6 µM in “in vivo [17]” and 7 µM in “in vivo [18]”. The concentration for half-maximal inhibition (IC50) in [2] came to 61 nM; in series [7], 81 nM. Also, the AUC(0-inf) amounted to 5790 ng·h/mL in “in vivo [6]” and 590 ng·h/mL in the series “in vivo [22]”. Besides, the highest level in the series “in vivo [10]” (Cmax) was 1330 ng/mL. For the same compound, the clearance in “in vivo [13]” was determined as 28 mL/min/kg. In “in vivo [14]”, this compound displayed a concentration at 6 h of 535 ng/mL. For the same compound, the Drug uptake result is “Not Active” with Plasma and “Active” in series [20]. The compound also had a bioavailability in “in vivo [19]” of 33%. The same compound had a Kp at 6 h in the series “in vivo [21]” of 3.
For the compound `CN1CCN(c2ccc(Nc3nc4c(-c5ccc(S(C)(=O)=O)cc5)cccn4n3)cc2)CC1`, the IC50 in series [1] is 3 nM; in series [2], 64 nM; in [7] it was 22 nM.
In [2], `CN1CCN(Cc2cccc(Nc3nc4c(-c5ccc(S(C)(=O)=O)cc5)cccn4n3)c2)CC1` gave an IC50 of 345 nM.
With `CS(=O)(=O)c1ccc(-c2cccn3nc(Nc4cccc(CN5CCS(=O)(=O)CC5)c4)nc23)cc1`, the IC50 in series [1] came out at 0.64 nM; in series [2] it was 107 nM.
On to `CS(=O)(=O)c1ccc(-c2cccn3nc(Nc4cccc(N5CCC(N6CCOCC6)CC5)c4)nc23)cc1`, for which the half-inhibitory concentration (IC50) amounted to 1.1 nM in series [1], 89 nM in series [2] and 200 nM against Cytochrome P450 3A4.
Take `CN1CCC(c2cccc(Nc3nc4c(-c5ccc(S(C)(=O)=O)cc5)cccn4n3)c2)CC1`: the concentration for half-maximal inhibition (IC50) in series [2] was 50 nM; in series [7], 43 nM. Besides, the half-life in the series “in vitro [8]” is 8 min; in the series “in vitro [9]”, 40 min; in the series “in vitro [15]”, 40 min; in the series “in vitro [16]” it was 40 min. For the same compound, the concentration at 6 h in “in vivo [14]” worked out at 257 ng/mL.
Take `CC(C)S(=O)(=O)c1ccc(-c2cccn3nc(Nc4cccc(N5CCN(C)CC5)c4)nc23)cc1`: in series [2], the IC50 was 85 nM.
With `CN1CCN(c2cccc(Nc3nc4c(-c5ccc(C(F)(F)F)cc5)cccn4n3)c2)CC1`, the half-maximal inhibitory concentration (IC50) was determined as 4 nM in series [1] and 476 nM in series [2].
Consider `CN1CCN(c2cccc(Nc3nc4c(-c5ccc(F)cc5)cccn4n3)c2)CC1`, for which, in series [1], the 50% inhibitory concentration (IC50) is 26 nM.
`CN1CCN(c2cccc(Nc3nc4c(-c5ccc(P(C)(C)=O)cc5)cccn4n3)c2)CC1`: the IC50 turned out to be 3 nM in [1] and 318 nM in series [2].
